Tests used:
S. pneumoniae D39V [1] = assay: fitness (endpoint OD595 vs no drug) (fraction); higher = more growth
Procedure, shortened: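 Each well of a 384-well plate received 30 µl of culture at OD595 0.01, or 55 µl for S. pneumoniae. TSB, LB Lennox or CY served as media at 37 °C. OD595 was taken every 30 min for 14 h and corrected by subtracting the first reading. Fitness is the optical density at stationary-phase entry divided by the robust mean of no-drug controls, capped at 1.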

B. subtilis 168 = assay: Bliss interaction score (quartile over a dose matrix) (fitness difference); higher = more antagonism (negative = synergy)
Procedure, shortened: (§1)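 Quartiles of the Bliss score were taken over technical, biological and donor/recipient replicates. That score is observed fitness minus the product of the single-drug fitness values, which were inferred from combination data. Fitness itself is OD595 at entry into stationary phase divided by the plate's robust no-drug mean, with a cap at 1.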

S. aureus DSM 20231 = assay: as above
Procedure, shortened: as §1

S. aureus Newman = assay: as above
Procedure, shortened: as §1

S. pneumoniae D39V [2] = assay: as above
Procedure, shortened: as §1
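Throughout, for Bliss interaction score (quartile over a dose matrix): first quartile when negative (synergy) and third quartile when positive (antagonism).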

CC[C@H]1OC(=O)[C@H](C)[C@@H](O[C@H]2C[C@@](C)(OC)[C@@H](O)[C@H](C)O2)[C@H](C)[C@@H](O[C@@H]2O[C@H](C)C[C@H](N(C)C)[C@H]2O)[C@](C)(OC)C[C@@H](C)C(=O)[C@H](C)[C@@H](O)[C@]1(C)O [Clarithromycin] + COc1c(N2C[C@@H]3CCCN[C@@H]3C2)c(F)cc2c(=O)c(C(=O)O)cn(C3CC3)c12 [Moxifloxacin]
fitness, S. pneumoniae D39V [1], one replicate
Settings	first compound 0.007812 µg/mL	first compound 0.01562 µg/mL	first compound 0.03125 µg/mL
partner 0.0037 µg/mL	0.834	0.823	0.648
partner 0.0075 µg/mL	0.85	0.82	0.6
partner 0.015 µg/mL	0.818	0.765	0.572

fitness, S. pneumoniae D39V [1]
Settings	partner 0.005 µg/mL	partner 0.01 µg/mL	partner 0.02 µg/mL	partner 0.0312 µg/mL	partner 0.0625 µg/mL	partner 0.125 µg/mL
first compound 0.0625 µg/mL	0.716	0.748	0.717	–	–	–
first compound 0.07 µg/mL	–	–	–	0.056	0.0339	0.0389
first compound 0.14 µg/mL	–	–	–	0.0451	0.0439	0.0343
first compound 0.25 µg/mL	0.217	0.235	0.238	–	–	–
first compound 0.28 µg/mL	–	–	–	0.0421	0.0312	0.0325

Settings	Bliss interaction score
B. subtilis 168	0.0403
S. aureus DSM 20231	0.0891
S. aureus Newman	0.123
S. pneumoniae D39V [2]	0.0742

CC[C@H]1OC(=O)[C@H](C)[C@@H](O[C@H]2C[C@@](C)(OC)[C@@H](O)[C@H](C)O2)[C@H](C)[C@@H](O[C@@H]2O[C@H](C)C[C@H](N(C)C)[C@H]2O)[C@](C)(OC)C[C@@H](C)C(=O)[C@H](C)[C@@H](O)[C@]1(C)O [Clarithromycin] + COc1ccc(C[C@H](N)C(=O)N[C@H]2[C@@H](O)[C@H](n3cnc4c(N(C)C)ncnc43)O[C@@H]2CO)cc1 [Puromycin]
fitness, S. pneumoniae D39V [1], one replicate
Settings	first compound 0.007812 µg/mL	first compound 0.01562 µg/mL	first compound 0.03125 µg/mL	first compound 0.0625 µg/mL	first compound 0.125 µg/mL	first compound 0.25 µg/mL
partner 1 µg/mL	0.947	0.867	0.676	0.419	0.138	0.112
partner 2 µg/mL	0.839	0.805	0.612	0.504	0.192	0.0762
partner 4 µg/mL	0.667	0.617	0.467	0.255	0.15	0.134

fitness, S. pneumoniae D39V [1]
Settings	first compound 0.07 µg/mL	first compound 0.14 µg/mL	first compound 0.28 µg/mL
partner 1 µg/mL	0.131	0.0877	0.11
partner 2 µg/mL	0.125	0.096	0.0799
partner 4 µg/mL	0.12	0.122	0.0797

Settings	Bliss interaction score
B. subtilis 168	0.0559
S. aureus DSM 20231	0.0616
S. aureus Newman	-0.0662
S. pneumoniae D39V [2]	-0.0827

CC[C@H]1OC(=O)[C@H](C)[C@@H](O[C@H]2C[C@@](C)(OC)[C@@H](O)[C@H](C)O2)[C@H](C)[C@@H](O[C@@H]2O[C@H](C)C[C@H](N(C)C)[C@H]2O)[C@](C)(OC)C[C@@H](C)C(=O)[C@H](C)[C@@H](O)[C@]1(C)O [Clarithromycin] + COc1cccc2c1C(=O)c1c(O)c3c(c(O)c1C2=O)C[C@@](O)(C(=O)CO)C[C@@H]3O[C@H]1C[C@H](N)[C@H](O)[C@H](C)O1 [Doxorubicin]
fitness, S. pneumoniae D39V [1], one replicate
Settings	first compound 0.007812 µg/mL	first compound 0.01562 µg/mL	first compound 0.03125 µg/mL
partner 0.25 µg/mL	0.866	0.825	0.633
partner 0.5 µg/mL	0.841	0.798	0.621
partner 1 µg/mL	0.794	0.777	0.608

fitness, S. pneumoniae D39V [1]
Settings	first compound 0.0625 µg/mL	first compound 0.07 µg/mL	first compound 0.125 µg/mL	first compound 0.14 µg/mL	first compound 0.25 µg/mL	first compound 0.28 µg/mL
partner 0.25 µg/mL	0.457	0.112	0.277	0.0456	0.077	0.0403
partner 0.5 µg/mL	0.495	0.106	0.295	0.0366	0.107	0.0281
partner 1 µg/mL	0.411	0.103	0.188	0.0523	0.0684	0.0955

Settings	Bliss interaction score
B. subtilis 168	0.0718
S. aureus DSM 20231	0.0858
S. aureus Newman	0.105
S. pneumoniae D39V [2]	-0.0578

CC[C@H]1OC(=O)[C@H](C)[C@@H](O[C@H]2C[C@@](C)(OC)[C@@H](O)[C@H](C)O2)[C@H](C)[C@@H](O[C@@H]2O[C@H](C)C[C@H](N(C)C)[C@H]2O)[C@](C)(OC)C[C@@H](C)C(=O)[C@H](C)[C@@H](O)[C@]1(C)O [Clarithromycin] + C[C@@H]1O[C@@H]1P(=O)(O)O [Fosfomycin]
fitness, S. pneumoniae D39V [1], one replicate
Settings	first compound 0.007812 µg/mL	first compound 0.01562 µg/mL	first compound 0.03125 µg/mL
partner 1.25 µg/mL	0.863	0.828	0.641
partner 2.5 µg/mL	0.775	0.804	0.634
partner 5 µg/mL	0.669	0.63	0.559

fitness, S. pneumoniae D39V [1]
Settings	first compound 0.0625 µg/mL	first compound 0.07 µg/mL	first compound 0.125 µg/mL	first compound 0.14 µg/mL	first compound 0.25 µg/mL	first compound 0.28 µg/mL
partner 1.25 µg/mL	0.543	0.171	0.332	0.088	0.139	0.102
partner 2.5 µg/mL	0.538	0.102	0.323	0.0599	0.13	0.0306
partner 5 µg/mL	0.485	0.0461	0.288	0.057	0.132	0.0557

Settings	Bliss interaction score
B. subtilis 168	0.0504
S. aureus DSM 20231	-0.0843
S. aureus Newman	-0.114
S. pneumoniae D39V [2]	0.0544

— the supplement of paper PMC10627819
